As a reminder, the pEC50 is −log10 of the EC50, conventionally taken in molar units.

Structures are written as SMILES. pEC50: −log10 of the molar value. Where only a bound is given, the exact number is not on record here.

The target in experiment [1] is T1, human TGR5 receptor (Homo sapiens, UniProt Q8TDU6).
T1 construct: host or cells: CHO-K1 (hTGR5-CHO cells)
T1 sequence (Q8TDU6 1-330): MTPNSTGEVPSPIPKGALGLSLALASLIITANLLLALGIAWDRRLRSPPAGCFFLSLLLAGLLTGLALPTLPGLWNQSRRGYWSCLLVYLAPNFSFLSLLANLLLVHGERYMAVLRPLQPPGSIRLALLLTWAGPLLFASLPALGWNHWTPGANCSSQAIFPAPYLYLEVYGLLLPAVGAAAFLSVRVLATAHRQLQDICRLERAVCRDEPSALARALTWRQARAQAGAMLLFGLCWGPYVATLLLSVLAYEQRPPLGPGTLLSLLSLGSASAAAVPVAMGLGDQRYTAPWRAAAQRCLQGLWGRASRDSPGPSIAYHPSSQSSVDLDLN
In words: Human TGR5 cAMP production assay. The experiment is classed as cell-based. Particulars: human TGR5, luminescent cAMP assay; coded A-D; read-out: Human TGR5 Lum. cAMP Activity (EC50). The method, then: Human TGR5 cAMP Production Assay
We evaluated the Compounds of the present invention for their ability to induce cAMP production using CHO-K1 cells overexpressing the human TGR5 receptor. CHO-K1 cells stably expressing human TGR5 receptor (accession number NM_001077194.1 (hTGR5) (i.e., hTGR5-CHO cells) were purchased from DiscoveRx Corporation (Fremont, Calif.). hTGR5-CHO cells were grown in Ham's F-12 media supplemented with 10% Fetal Bovine Serum, 1% Penicillin-Streptomycin, 2 mM L-Alanine L-Glutamine (Glutamax), and 800 μg/mL Geneticin selection. The cAMP production assay was performed using DiscoveRx's cAMP XS+ kit (Catalog No. 90-0075XL) following the manufacturer's recommended protocol. Briefly, hTGR5-CHO cells were harvested using non-enzymatic cell dissociation buffer (Sigma-Aldrich, St. Louis, Mo.) and 1×10^6 cells were combined in Phosphate-Buffered Saline (PBS) to a final volume of 496 μL to which 4 μL of 125 mM IBMX (Sigma-Aldrich, St. Louis, Mo.) was added. 500 μL of cAMP antibody solution was added to the harvested cells and incubated at room temperature for 20 min.
Test compounds were serially diluted (half-log dilutions) in DMSO and then further diluted 1:50 in PBS, 10 mM HEPES buffer. 2 μL of serially diluted compound was added to a 384-well low volume plate (Greiner; cat #784075) and centrifuged briefly. 2 μL of the cell/cAMP antibody mixture was then added to each compound-containing well and allowed to incubate at room temperature for one hour. Following incubation, the XS+ kits' ED/Lysis/CL Substrate Working Solution was prepared following the manufacturer's recommended protocol and 4 μL was added to each well of the plate. The plate was then incubated for one hour at room temperature. Following incubation, 4 μL of Enzyme Acceptor reagent was added to the plate and allowed to incubate overnight at room temperature. Luminescent signal was then detected using the Viewlux instrument (Perkin-Elmer, Waltham, Mass.).
(§1) In Table 33, EC50 values for both human and mouse cells were determined according to the TGR5 cAMP assays described above.
For orientation: cAMP levels reflect the balance of adenylyl cyclase and phosphodiesterase activity.

Experiment [2] deals with T2, mouse TGR5 receptor (Mus musculus, UniProt Q80SS6).
T2 construct: expressed in transfected cells; host or cells: HEK293-EBNA (293 c18, ATCC CRL10852), Hygromycin B selection
T2 sequence (Q80SS6 1-329): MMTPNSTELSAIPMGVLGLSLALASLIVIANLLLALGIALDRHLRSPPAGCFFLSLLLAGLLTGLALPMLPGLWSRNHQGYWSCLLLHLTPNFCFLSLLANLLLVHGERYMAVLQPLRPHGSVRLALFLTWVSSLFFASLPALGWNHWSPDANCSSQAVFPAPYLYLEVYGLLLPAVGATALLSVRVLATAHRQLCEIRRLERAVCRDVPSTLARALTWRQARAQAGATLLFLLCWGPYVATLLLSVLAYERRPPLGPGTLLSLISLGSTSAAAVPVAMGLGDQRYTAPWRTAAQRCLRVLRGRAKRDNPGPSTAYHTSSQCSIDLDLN
Kind of experiment: Mouse TGR5 cAMP production assay (HTRF, Cisbio cAMP HiRange). Particulars: HEK293-EBNA cells overexpressing mouse TGR5, HTRF cAMP HiRange; coded A-D. The experiment is classed as cell-based.
Excerpt: Mouse TGR5 cAMP Production Assay
We evaluated compounds of the present invention for their ability to induce cAMP production in HEK-EBNA cells overexpressing the mouse TGR5 receptor. Human embryonic kidney cells (HEK293-EBNA) stably expressing mouse TGR5 receptor were established using the following procedure. Specifically, a commercially-obtained gene encoding mouse TGR5 (accession number BC116914) from Thermo Scientific (Waltham, Mass.) was cloned into an episomal expression vector. The resulting expression plasmid was then transfected into 293 c18 (ATCC® CRL10852™) cells, which express the Epstein-Barr virus nuclear antigen EBNA1 and can support the replication of episomal vectors. Selection for the plasmid was maintained with Hygromycin B. Cells were cultured and maintained in DMEM (Sigma; cat #6429) supplemented with 10% Fetal Bovine Serum, 1% penicillin/streptomycin, 2 mM L-alanine L-glutamine (GlutaMax), and 250 μg/mL Hygromycin.
2. HTRF cAMP Production Assay
In this second cAMP production assay, the cAMP production was measured in 384-well low volume plates (Greiner; cat #784075) using the Cisbio™ cAMP HiRange HTRF Assay Kit (Cisbio) according to the manufacturer's protocol.
Briefly, compounds were initially diluted in 100% DMSO (12-point serial dilution by half logs) in a 96-well plate and then were further diluted 1:50 in PBS containing 10 mM HEPES. 5 μL were transferred to the 384-well assay plate in duplicate. HEK293-EBNA cells stably overexpressing mouse TGR5 were harvested using non-enzymatic cell dissociation buffer (Sigma), spun down, then resuspended in serum-free DMEM with 500 μM IBMX at a density of 500,000 cells/mL. 5 μL of cell suspension was transferred to each well of the 384-well assay plate already containing compound. The plate was covered and incubated at room temperature for 1 hour. The d2-cAMP and anti-cAMP Ab-cryptate stock solutions were prepared as per kit instructions. Then 5 μL of each conjugate (d2 and cryptate) were added to each well of the assay plate. The plate was covered and incubated at room temperature for 1 hour. The plate was read on an Envision™ plate reader (Perkin Elmer).
as §1

Consider `COc1cnccc1-c1cccc(C(C)(C)NS(=O)(=O)c2cccc(C(F)(F)F)c2C)c1` [Compound 2BM], for which the pEC50 in experiment [1] is > 7.00; in experiment [2], 6.00 to 7.00.
As for `COc1cnccc1-c1cccc(C(C)(C)NS(=O)(=O)c2ccc(C#N)cc2Cl)c1` [Compound 2BN], the pEC50 in experiment [1] is 6.00 to 7.00; in experiment [2], 4.52 to 6.00.
As to `Cc1cnccc1-c1cccc(C(C)(C)NS(=O)(=O)c2cccc(Cl)c2C)c1` [Compound 2BU], the pEC50 in experiment [1] and in experiment [2] was > 7.00 throughout.
`Cc1cnccc1-c1cccc(C(C)(C)NS(=O)(=O)c2cccc(Cl)c2Cl)c1` [Compound 2BV]: the pEC50 in experiment [1] and in experiment [2] was > 7.00 in each case.
Regarding `Cc1cnccc1-c1cccc(C(C)(C)NS(=O)(=O)c2cc(Br)ccc2C)c1` [Compound 2BW], the values for the negative logarithm of the EC50 (pEC50) in experiment [1] and in experiment [2] were > 7.00 and 6.00 to 7.00, respectively.
For `Cc1cnccc1-c1cccc(C(C)(C)NS(=O)(=O)c2ccccc2C)c1` [Compound 2BX], in that order: > 7.00 and > 7.00.
With `CCc1cnccc1-c1cccc(C(C)(C)NS(=O)(=O)c2cccc(Cl)c2C)c1` [Compound 2BY], the pEC50 in experiment [1] and in experiment [2] was > 7.00 each time.
Regarding `Cc1cnccc1-c1cccc([C@H](CCCC#N)NS(=O)(=O)c2cccc(Cl)c2C)c1` [Compound 2BZ], the negative-log EC50 (pEC50) in experiment [1] and in experiment [2] was > 7.00 each time.
For `CCc1cnccc1-c1cc(OC)cc(C(C)(C)NS(=O)(=O)c2ccccc2C(F)(F)F)c1` [Compound 2CD], the pEC50 in experiment [1] and in experiment [2] was 6.00 to 7.00 each time.
As for `CC(C)(NS(=O)(=O)c1ccccc1C(F)(F)F)c1cccc(-c2ccc(=O)[nH]c2)c1` [Compound 3, N-(2-(3-(6-oxo-1,6-dihydropyridin-3-yl)phenyl)propan-2-yl)-2-(trifluoromethyl)benzenesulfonamide], the pEC50 in experiment [1] was 6.00 to 7.00; in experiment [2], 4.52 to 6.00.
For `Cc1c(Cl)cccc1S(=O)(=O)N[C@@H](C)c1cccc(-c2ccnn2C)c1` [Compound 4, (S)-3-Chloro-2-methyl-N-(1-(3-(1-methyl-1H-pyrazol-5-yl)phenyl)ethyl)benzenesulfonamide], in that order: 6.00 to 7.00 and 4.52 to 6.00.
For `Cc1nccc(-c2cccc(C(C)(C)NS(=O)(=O)c3cccc(C(F)(F)F)c3)c2)c1C` [Compound 5AC, N-(2-(3-(2,3-dimethylpyridin-4-yl)phenyl)propan-2-yl)-3-(trifluoromethyl)-benzenesulfonamide], in that order: 4.52 to 6.00 and 4.52 to 6.00.
For `CC(C)(NS(=O)(=O)c1cccc(C(F)(F)F)c1)c1cccc(-c2ccncc2CO)c1` [Compound 5AE, N-(2-(3-(3-(hydroxymethyl)-pyridin-4-yl)phenyl)propan-2-yl)-3-(trifluoromethyl)benzenesulfonamide], in that order: > 7.00 and 4.52 to 6.00.
For the compound `CC(C)(NS(=O)(=O)c1cccc(C(F)(F)F)c1)c1cccc(-c2ccc3nccn3c2)c1` [Compound 5AF, N-(2-(3-(imidazo[1,2-a]pyridin-6-yl)phenyl)propan-2-yl)-3-(trifluoromethyl)benzenesulfonamide], the figures for the negative-log EC50 (pEC50) in experiment [1] and in experiment [2] were 6.00 to 7.00 and 4.52 to 6.00, respectively.
Regarding `CC(C)(NS(=O)(=O)c1ccccc1C(F)(F)F)c1cccc(-c2ccc3nccn3c2)c1` [Compound 5AJ, N-(2-(3-(imidazo[1,2-a]pyridin-6-yl)phenyl)propan-2-yl)-2-(trifluoromethyl)benzenesulfonamide], the pEC50 in experiment [1] is 6.00 to 7.00; in experiment [2] it was 4.52 to 6.00.
Consider `Cc1cc2nccn2cc1-c1cccc(C(C)(C)NS(=O)(=O)c2ccccc2C(F)(F)F)c1` [Compound 5AK, N-(2-(3-(7-methylimidazo[1,2-a]pyridin-6-yl)phenyl)propan-2-yl)-2-(trifluoromethyl)benzenesulfonamide], for which the pEC50 in experiment [1] was 6.00 to 7.00; in experiment [2], 4.52 to 6.00.
Take `CC(C)(NS(=O)(=O)c1ccccc1C(F)(F)F)c1cccc(-c2ccc3[nH]cnc3c2)c1` [Compound 5AL, N-(2-(3-(1H-benzo[d]imidazol-5-yl)phenyl)propan-2-yl)-2-(trifluoromethyl)benzenesulfonamide]: the pEC50 in experiment [1] is 4.52 to 6.00; in experiment [2] it was < 4.52.
For `CC(C)(NS(=O)(=O)c1ccccc1C(F)(F)F)c1cccc(-c2cnc3nccn3c2)c1` [Compound 5AM, N-(2-(3-(imidazo [1,2-a]pyrimidin-6-yl)phenyl)propan-2-yl)-2-(trifluoromethyl)benzenesulfonamide], in that order: 4.52 to 6.00 and 4.52 to 6.00.
Take `CC(C)(NS(=O)(=O)c1ccccc1C(F)(F)F)c1cccc(-c2ccncc2CO)c1` [Compound 5AN, N-(2-(3-(3-(hydroxymethyl)pyridin-4-yl)phenyl)propan-2-yl)-2-(trifluoromethyl)benzenesulfonamide]: the pEC50 in experiment [1] was > 7.00; in experiment [2] it was 6.00 to 7.00.
`CCc1cnccc1-c1cccc(C(C)(C)NS(=O)(=O)c2ccccc2[N+](=O)[O-])c1` [Compound 5AO, N-(2-(3-(3-ethylpyridin-4-yl)phenyl)propan-2-yl)-2-nitrobenzenesulfonamide]: the pEC50 in experiment [1] and in experiment [2] was > 7.00 each time.
As to `Cc1cnccc1-c1cccc(C(C)(C)NS(=O)(=O)c2ccccc2[N+](=O)[O-])c1` [Compound 5AP, N-(2-(3-(3-methylpyridin-4-yl)phenyl)propan-2-yl)-2-nitrobenzenesulfonamide], the results for the pEC50 in experiment [1] and in experiment [2] were > 7.00 and 6.00 to 7.00, respectively.
Turning to `CCc1cnccc1-c1cccc([C@H](C)NS(=O)(=O)c2ccccc2C(F)(F)F)c1` [Compound 5AQ, (S)-N-(1-(3-(3-ethylpyridin-4-yl)phenyl)ethyl)-2-(trifluoromethyl)benzenesulfonamide], the pEC50 in experiment [1] and in experiment [2] was > 7.00 throughout.
With `Cc1cnccc1-c1cccc([C@H](C)NS(=O)(=O)c2ccccc2C(F)(F)F)c1` [Compound 5AR, (S)-N-(1-(3-(3-methylpyridin-4-yl)phenyl)ethyl)-2-(trifluoromethyl)benzenesulfonamide], the pEC50 in experiment [1] was > 7.00; in experiment [2] it was 6.00 to 7.00.

Source of the values: patent US11236055B2 (Venenum Biodesign, LLC, priority 2016, dated 2022).
